Test results: patent US20240058403A1, “YEAST PARTICLES FOR DELIVERY OF WATER-ACTIVATED SELF-EMULSIFYING CANNABINOID FORMULATIONS” (UNIVERSITY OF MASSACHUSETTS, priority 2022, published 2024)
Entries after “also recorded” stand apart in the source; their conditions may differ. Read-outs that look alike come from different tables or passages of the source.

What was measured:
[1] = Stability of CBD-SA-RA o/w emulsions; format: physicochemical; conditions: for Stable CBD o/w emulsion: 1 mg/mL in water, room temperature 30 minutes; for Stable CBD-OA-RA o/w emulsion: 1 mg/mL in water by sonication, room temperature for 30 minutes, precipitate/phase partitioning = unstable
[2] = Sustained CBD release from GLPs with sequestering/release agents in simulated saliva; format: physicochemical
Method: GLPs were loaded at a weight ratio of CBD:OA:GLP of 2:1:1. […] Aliquots (200 μL) were collected at 1, 3, 6 and 24 h and the samples were centrifuged to separate supernatant (released CBD fraction) and GLP pellet. Released CBD was quantified in the supernatants by HPLC as described before.
The effect of addition of RAs to CBD with OA as SA was tested.
GLPs were loaded with CBD, OA and various RAs. Release assays were performed by the procedure described as before.
[…] Aliquots (200 μL) were collected at 1, 3, 6 and 24 h and the samples were centrifuged to separate supernatant (released CBD fraction) and GLP pellet. Released CBD was quantified in the supernatants by HPLC as described before.

[3] = Micelle size of CBD-SA-RA emulsions; format: physicochemical
[4] = Fast release of cannabinoids from GLPs embedded in adjuvant, simulated saliva with or without tissue, 1 minute; format: physicochemical; conditions: for cannabinoid release from GLP in 1 minute: cannabinoid loaded alone, no release agent; for THC released in 1 minute: 37° C.
Method: Composition of simulated saliva was 0.72 g/L potassium chloride, 0.22 g/L calcium chloride dihydrate, 0.68 g/L potassium phosphate monobasic, 0.866 g/L sodium phosphate dibasic, 1.5 g/L potassium bicarbonate, 0.06 g/L potassium thiocyanate, and 0.03 g/L citric acid. Samples of dry GLP-THC (4 mg) were resuspended in 1 mL of (A) water, (B) dry glycerin or (C) SEDDS mixture (3.3 mg/mL lecithin in 3% MCT in glycerin). The GLP THC suspensions were diluted with simulated saliva (25% simulated saliva+75% GLP THC in solvent mixture) with and without the addition of a sample of 75-100 mg fat tissue. The samples were incubated for 1 minute at 37° C., and then the fractions were separated to quantify THC in the GLP pellet (THC not released), THC in supernatant (released) and THC in the tissue (released from GLP and absorbed by the tissue). The THC absorbed in the tissue was extracted in 100% methanol and the THC remaining in GLPs was extracted in 80% ethanol-20% water. The THC in all fractions was quantified by HPLC.
GLPs were loaded with a THC:GLP weight ratio of 1:1 and embedded in different solvents. THC release was achieved and quantified as described before (FIG. 9).
GLPs were loaded with a THC and undecanoic acid as a release agent (RA). Loaded GLPs were embedded in adjuvants (water, glycerin or SEDDS mixture). THC release was achieved and quantified as described before (FIG. 9).
GLPs were loaded with a CBD, CBN or CBG and octanoic acid as a RA. Loaded GLPs were embedded in adjuvant water or SEDDS mixture. Cannabinoid release was achieved and quantified as described before for THC (FIG. 9).

[5] = hydrophilic-lipophilic balance; cited from earlier work
[6] = Maximum solubility of surfactants in OA or UDA; format: physicochemical
S. cerevisiae = conditions: by enhancing potassium leakage and disrupting membrane fluidity; cited from earlier work
H. pylori = conditions: cited from earlier work
C. albicans = conditions: by enhancing potassium leakage and disrupting membrane fluidity; cited from earlier work
[7] = Sustained THC release from GLP-THC-UDA with or without RA in simulated saliva + tissue; format: physicochemical; conditions: simulated saliva + tissue at 37° C.; 1 to 24 h
Method: GLPs were loaded at a weight ratio of CBD:OA:GLP of 2:1:1. Dry GLP-CBD (5 mg) were resuspended in 1 mL of simulated saliva, a 75-100 mg piece of simulated tissue was added to the sample and incubated at 37° C. with constant mixing. Aliquots (200 μL) were collected at 1, 3, 6 and 24 h and the samples were centrifuged to separate supernatant (released CBD fraction) and GLP pellet. Released CBD was quantified in the supernatants by HPLC as described before.
The effect of addition of RAs to THC with UDA as SA was tested. Release assays were performed as described as before.

[8] = Physical state of THC-UDA-RA mixture at room temperature; format: physicochemical
Method: Various RAs were tested as described before for their ability to stabilize micelles formed when GLPs encapsulate THC as the payload and UDA as the SA.

[9] = Release of oleamide from GLPs in simulated saliva with or without tissue; format: physicochemical
Method: The release of oleamide encapsulated in GLPs using octanoic acid or undecanoic acid as loading solvent or as leave-in solvent was tested. To perform the release assay, the GLP-oleamide suspensions were diluted with simulated saliva (25% simulated saliva+75% GLP in solvent mixture) with and without the addition of a sample of 75-100 mg fat tissue. […], and then the fractions were separated to quantify oleamide in the GLP pellet (unreleased oleamide), oleamide in the supernatant (released) and oleamide in the tissue (released from GLP and absorbed by the tissue). The oleamide absorbed in the tissue was extracted in 100% methanol and the oleamide remaining in GLPs was extracted in 80% ethanol-20% water. The oleamide in all fractions was quantified by HPLC. […] Oleamide was released at a low efficiency (2%) from GLPs with simulated saliva and higher efficiency (34-40%) with simulated saliva and tissue. The addition of UA as the leave-in solvent increased OA release from 34% to 46% in 5 minutes and from 40% to 58% with simulated saliva and tissue

[10] = CBD-SA-RA emulsion, RA TRITON X100 20 % w/w

C=CC(C)(O)CCC=C(C)CCC=C(C)C (stereo not shown) [Nerolidol]
Stable CBD o/w emulsion ([1]; CBD-SA emulsion without RA): No | Stable CBD o/w emulsion [1, 10]: Yes | total CBD release at 24 hours ([2]; SA plus TRITON X-100 as RA, simulated saliva + tissue at 37° C.): 37% | course of CBD release with SA and TRITON X-100 as RA ([2]; simulated saliva + tissue at 37° C.): did not lead to CBD release in the first 6 hours | CBD-SA-RA micelle size (nm) ([3]; RA TRITON X100 20 % w/w): 661 nm | CBD-SA-RA micelle size (nm) ([3]; without RA): 1260 nm

CCCCCc1cc(O)c(C/C=C(\C)CCC=C(C)C)c(O)c1 [CBG, cannabigerol]
cannabinoid release from GLP in 1 minute [4]: do not release efficiently

TWEEN 80
HLB [5]: 15 | Stable CBD-OA-RA o/w emulsion [1]: No | Maximum solubility in OA [6]: 25% w/w

CC(C)=CCC/C(C)=C/CO [Geraniol]
growth inhibition (S. cerevisiae): inhibit the growth | concentration that inhibited in vitro growth (H. pylori): 2 mg/L | growth inhibition (C. albicans): inhibit the growth

TWEEN 20
HLB [5]: 16.7 | Stable CBD-OA-RA o/w emulsion [1]: No | Maximum solubility in OA [6]: 20% w/w

CCCCCc1cc(O)c2c(c1)OC(C)(C)[C@@H]1CCC(C)=C[C@@H]21 [THC, tetrahydrocannabinol]
THC released in 1 minute ([4]; GLPs (THC:GLP 1:1) embedded in SEDDS mixture (lecithin/MCT/glycerin), simulated saliva with tissue): up to 53% | THC released in 1 minute ([4]; GLPs (THC:GLP 1:1) embedded in SEDDS mixture (lecithin/MCT/glycerin), simulated saliva without tissue): Up to 30% | THC released in 1 minute ([4]; GLPs (THC:GLP 1:1) embedded in glycerin, simulated saliva containing tissue): Up to 30%

C=C(C)[C@@H]1CCC(C)=C[C@H]1c1c(O)cc(CCCCC)cc1O [CBD, cannabidiol, reference compound]
cannabinoid release from GLP in 1 minute [4]: do not release efficiently | time after which CBD release plateaued ([2]; GLPs CBD:OA:GLP 2:1:1, OA as SA, simulated saliva): 6 h | CBD released after 24 h incubation ([2]; GLPs CBD:OA:GLP 2:1:1, OA as SA, simulated saliva (without simulated tissue), 37° C.): ≤ 25%

CCCCCCCC(=O)O [Octanoic acid]
Stable CBD o/w emulsion ([1]; CBD-SA emulsion without RA): No | Stable CBD o/w emulsion [1, 10]: Yes | CBD-SA-RA micelle size (nm) ([3]; without RA): 379 nm

CCCCCc1cc(O)c2c(c1)OC(C)(C)c1ccc(C)cc1-2 [CBN, cannabinol]
cannabinoid release from GLP in 1 minute [4]: do not release efficiently

TRITON ™ X-100
effect of RA on sustained THC release from GLP-THC-UDA [7]: did not improve sustained release from 1 to 6 h; also recorded: yielded high THC release at the 24 hour time point | HLB [5]: 13.5 | Stable CBD-OA-RA o/w emulsion [1]: Yes | Stable CBD-OA-RA o/w emulsion ([1]; listed as TRITON™ X-100): form stable micelles | Maximum solubility in OA [6]: 20% w/w | Maximum solubility in UDA [6]: 37.5% w/w | fold increase of CBD release compared to GLP-CBD-OA control sample ([2]; GLP-CBD-OA-RA, simulated saliva with tissue): 1.7-2.0 fold | effect of RA on sustained CBD release from GLP-CBD-OA ([2]; simulated saliva with tissue, 1 to 6 hours): improvement of sustained release from 1 to 6 hours | Physical State of THC-UDA-RA mixture at room temperature [8]: mixture of oil and solid UDA | Physical State of THC-UDA-RA mixture at room temperature ([8]; listed as TRITONTM X-100): Solid

CCCCCCCC/C=C\CCCCCCCC(N)=O [Oleamide, oleamide]
% oleamide Released ([9]; simulated saliva (no tissue), 1 hour): 2% | % oleamide Released ([9]; simulated saliva + tissue, 5 minutes): 34% | % oleamide Released ([9]; simulated saliva + tissue, 1 hour): 40% | oleamide release efficiency ([9]; simulated saliva and tissue, 5 minutes to 1 hour): 34-40%
